Usually IC50 stands for the point on the concentration scale where inhibition reaches its midpoint. Read a low IC50 as greater potency.

The target in the experiment is T1, cGMP-PDE prepared from porcine aorta (Sus scrofa, UniProt A0A287B475).
T1 construct: Porcine aorta was cut into small pieces; from tissue; host or cells: porcine aorta, 100,000 x g supernatant, DEAE-Toyopearl 650S fraction
Nature of the experiment: Inhibitory Activity Against cGMP-PDE Prepared from Porcine Aorta. It is filed as biochemical. Conditions: CaM-independent cGMP-PDE fraction; 1 μM cGMP substrate; 1 mM EGTA; DMSO 4% or below. The procedure:
Inhibitory Activity Against cGMP-PDE Prepared from Porcine Aorta The enzymatic activity of cGMP-PDE prepared from porcine aorta was determined by the method of Thompson et al. This determination was conducted in the presence of 1 mM EGTA by the use of 1 μM cGMP as the substrate. The compound of the present invention was added to the reaction system in a state dissolved in DMSO to determine its inhibitory activity. The final DMSO concentration of the reaction system was adjusted to 4% or below. The above cGMP-PDE was prepared as follows: Porcine aorta was cut into small pieces, followed by the addition of 10 times (by volume) as much buffer A [comprising Tris/HCl (20 mM), magnesium acetate (2 mM), dithiothreitol (1 mM), EDTA (5 mM), aprotinin (1400TIU/l),leupeptin (10 mg/l), benzamidine (1 mM) and PMSF (0.2 mM) and having a pH of 7.5]. The resulting mixture was homogenated and centrifuged at 100,000×g for one hour. The obtained supernatant was adsorbed on a column packed with DEAE-Toyopearl 650S (Tosoh, Tokyo, Japan). The resulting column was washed with buffer B [comprising Tris/HCl (50 mM), EGTA (0.1 mM), magnesium acetate (2 mM), dithiothreitol (1 mM) and PMSF (0.2 mM) and having a pH of 7.5] and thereafter subjected to gradient elution with 0.05 to 0.4M sodium chloride to give a CaM-independent cGMP-PDE fraction. The compounds of the present invention were examined for cGMP-PDE inhibitory activity by the above method and the results are given in Table 1.

Where a name gives a salt, the structure may show the parent alone.

The molecule `Clc1nc(NCc2ccc3c(c2)OCO3)c2cc(-n3cccn3)ccc2n1` [Example 1, 2-Chloro-4-(3,4-methylenedioxybenzyl)amino-6-(pyrazol-1-yl)quinazoline] came in with an IC50 of 9.9 nM.

Molecule `CN(C)c1ccc2nc(Cl)nc(NCc3ccc4c(c3)OCO4)c2c1` [Example 2, 2-Chloro-4-(3,4-methylenedioxybenzyl)amino-6-dimethylaminoquinazoline] displayed an IC50 of 120 nM.

Regarding `O=[N+]([O-])c1ccc2nc(Cl)nc(NCc3ccc4c(c3)OCO4)c2c1` [Example 3, 2-Chloro-4-(3,4-methylenedioxybenzyl)amino-6-nitroquinazoline], the midpoint of inhibition, the IC50, lay at 5.27 nM.

For `Clc1nc(NCc2ccc3c(c2)OCO3)c2cc(N3CCCCC3)ccc2n1` [Example 4, 2-Chloro-4-(3,4-methylenedioxybenzyl)amino-6-piperidinoquinazoline], the IC50 is 1220 nM.

Turning to `Clc1nc(NCc2ccc3c(c2)OCO3)c2cc(-n3ccnc3Cl)ccc2n1` [Example 5, 2-Chloro-4-(3,4-methylenedioxybenzyl)amino-6-(2-chloroimidazol-1-yl)quinazoline], the IC50 was 33.4 nM.

In turn, `CCOC(=O)C1CCN(c2nc(NCc3ccc4c(c3)OCO4)c3cc(-n4cccn4)ccc3n2)CC1` [Example 6, 2-(4-Ethoxycarbonylpiperidino)-4-(3,4-methylenedioxybenzyl)amino-6-(pyrazol-1-yl)quinazoline hydrochloride] displayed an IC50 of 8.09 nM.

`CCOC(=O)C1CCN(c2nc(NCc3ccc4c(c3)OCO4)c3cc(N(C)C)ccc3n2)CC1` [Example 7, 2-(4-Ethoxycarbonylpiperidino)-4-(3,4-methylenedioxybenzyl)amino-6-dimethylaminoquinazoline]: the IC50 was found to be 148 nM.

In turn, `CCOC(=O)C1CCN(c2nc(NCc3ccc4c(c3)OCO4)c3cc([N+](=O)[O-])ccc3n2)CC1` [Example 8, 2-(4-Ethoxycarbonylpiperidino)-4-(3,4-methylenedioxybenzyl)amino-6-dimethylnitroquinazoline] registered an IC50 of 3.5 nM.

On to `O=C(O)C1CCN(c2nc(NCc3ccc4c(c3)OCO4)c3cc(-n4cccn4)ccc3n2)CC1` [Example 9, 2-(4-Carboxypiperidino)-4-(3,4-methylenedioxybenzyl)amino-6-(pyrazol-1-yl)quinazoline], for which half-maximal inhibition (IC50) required 1.48 nM.

In turn, `CN(C)c1ccc2nc(N3CCC(C(=O)O)CC3)nc(NCc3ccc4c(c3)OCO4)c2c1` [Example 10, 2-(4-Carboxypiperidino)-4-(3,4-methylenedioxybenzyl)amino-6-dimethylaminoquinazoline] yielded an IC50 of 18.7 nM.

`O=C(O)C1CCN(c2nc(NCc3ccc4c(c3)OCO4)c3cc([N+](=O)[O-])ccc3n2)CC1` [Example 11, 2-(4-Carboxypiperidino)-4-(3,4-methylenedioxybenzyl)amino-6-nitroquinazolin] yielded an IC50 of 0.76 nM.

As for `CCOC(=O)C1CCN(c2nc(NCc3ccc4c(c3)OCO4)c3cc(N)ccc3n2)CC1` [Example 12, 2-(4-Ethoxycarbonylpiperidino)-4-(3,4-methylenedioxybenzyl)amino-6-aminoquinazoline dihydrochloride], the IC50 came out at 1130 nM.

With `O=C(O)C1CCN(c2nc(NCc3ccc4c(c3)OCO4)c3cc(-c4nnn[nH]4)ccc3n2)CC1` [Example 13], the IC50 is 7.29 nM.

`c1cn(-c2ccc3ncnc(NCc4ccc5c(c4)OCO5)c3c2)cn1` [Example 14, 4-(3,4-Methylenedioxybenzyl)amino-6-(imidazol-1-yl)quinazoline]: the IC50 is 720 nM.

Regarding `c1nc(NCc2ccc3c(c2)OCO3)c2cc(-n3cncn3)ccc2n1` [Example 15, 4-(3,4-Methylenedioxybenzyl)amino-6-(1,2,4-triazol-1-yl)quinazoline], 360 nM corresponded to half-maximal inhibition (IC50).

In the case of `COc1ccc(CNc2ncnc3ccc(-n4cnc(C)c4)cc23)cc1Cl` [Example 17, 4-(3-Chloro-4-methoxybenzyl)amino-6-(4-methylimidazol-1-yl)quinazoline], the IC50 amounted to 403 nM.

The values are drawn from patent US5707998A, “Nitrogen-containing fused-heterocycle compounds” (Eisai Co., Ltd., priority 1993, dated 1998).
